Measurements taken from PubChem BioAssay (NCI).
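Cultured in 96-well plates, cells were exposed to test compound for 48 hours across five concentrations. GI50 is the concentration that inhibits growth by half. At the TGI there is no net growth.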

Assays:
Test in all cases: inhibition of tumour cell growth, NCI panel, 48 h
[1] = test system: CAKI-1 renal
[2] = test system: HCT-116 colon
[3] = test system: HL-60(TB) leukemia
[4] = test system: HOP-92 NSCLC
[5] = test system: MOLT-4 leukemia
[6] = test system: OVCAR-4 ovarian
[7] = test system: RPMI-8226 leukemia
[8] = test system: SK-MEL-5 melanoma
[9] = test system: UO-31 renal
[10] = test system: A498 renal

Compound | TGI [1] [µM] | TGI [2] [µM] | TGI [3] [µM] | TGI [4] [µM] | TGI [5] [µM] | TGI [6] [µM] | TGI [7] [µM] | TGI [8] [µM] | TGI [9] [µM] | GI50 [2] [µM] | GI50 [1] [µM] | GI50 [4] [µM] | GI50 [7] [µM] | GI50 [9] [µM] | TGI [10] [µM]
c1ccc(Cc2cccc3cc(-c4ccc(-c5ccccc5)cc4)[nH]c23)cc1 | > 100 | > 100 | > 100 | > 100 | > 100 | > 100 | > 100 | > 100 | > 100 |  |  |  |  |  | 
O=[N+]([O-])c1cc2n[nH]nc2c2nonc12 | 77.7 | 43.7 | 61.3 | > 100 | 95.6 | > 100 | > 100 | 24.7 | 38.6 |  |  |  |  |  | 
Cc1nn2c(N)cc(=O)nc2nc1/C=C/c1ccc(N(C)C)cc1 | > 100 | > 100 | 0.0117 | > 43.6 | > 100 | > 100 | > 100 | > 100 | > 100 |  |  |  |  |  | 
CS(C)(=O)=N/C=C\C(=O)C(Cl)(Cl)Cl | > 100 | > 100 | > 100 | > 100 | > 100 | > 100 | > 100 | > 100 | > 100 |  |  |  |  |  | 
CC(=O)OC1C=CC2CCN3C(=O)c4cc5c(cc4[C@H]1C23)OCO5 (some centres undefined) |  | > 100 | > 100 |  | > 100 |  | > 100 |  | > 100 |  |  |  |  |  | 
Nc1[nH]c(=O)nc2sc3c(c12)CCCC3 |  | > 100 | > 100 | > 100 | > 100 | > 100 | > 100 | > 100 | > 100 |  |  |  |  |  | 
COc1ccc(/C=C2/C(=O)N(C(=O)c3ccccc3O)N=C2C)cc1OC | > 28.1 | > 100 | > 33.6 | > 100 | > 100 | > 100 | > 100 | 24.6 | > 100 |  |  |  |  |  | 
O=C(O)CC(NC(=O)C(F)(F)F)C(=O)NC1Cc2ccccc2OC1=O (centres undefined) | > 100 |  |  |  | > 100 |  | > 100 | > 100 | > 100 |  |  |  |  |  | 
NS(=O)(=O)c1ccc(NNC(=O)c2cccc3c(=O)c4ccccc4[nH]c23)cc1 | > 100 | > 100 | > 100 | > 100 | > 100 | > 100 | > 100 | > 100 | > 100 |  |  |  |  |  | 
Clc1cc2nc(C3CCCO3)[nH]c2cc1Cl (centres undefined) |  | > 100 | > 100 | > 100 | > 100 | > 100 | > 100 | > 100 | 53.9 |  |  |  |  |  | 
Cc1cccc2c1Oc1cc(Cl)ccc1C2NC(=O)CCN1CCCCC1 (centres undefined) |  | 32.1 | 38.3 | 10.1 | 34.3 | 30.9 | 63 | 30 | 29.2 |  |  |  |  |  | 
NC(CCCCCP(=O)(O)O)C(=O)O (centres undefined) | > 100 | > 100 | > 100 | > 100 | > 100 | > 100 | > 100 | > 100 | > 100 |  |  |  |  |  | 
O=C(ON=c1c2ccccc2ccc2ccccc12)c1cc([N+](=O)[O-])cc([N+](=O)[O-])c1 |  | > 100 | > 100 | > 100 | > 100 | > 100 | > 100 | > 100 | > 100 |  |  |  |  |  | 
C=C1C(=O)OC2/C=C(\C)CC/C=C(/C)CC(OC(=O)/C(=C/CO)CO)C12 (centres undefined) | 34 |  | 20.7 | 59.9 | > 100 | > 100 | 72.7 | 31.2 | 33.8 |  |  |  |  |  | 
CN(C)c1cccc(-c2cc(=O)c3ccccc3[nH]2)c1 |  | > 100 | 74.6 |  | > 100 |  | > 100 |  | > 100 | 58.6 |  |  |  |  | 
CSc1ccc2c(c1)c(CCN)c(C)n2Cc1ccc(Cl)c(Cl)c1 | 3.85 |  |  | 2.78 |  |  | 4.66 |  | 3.01 |  | 1.82 | 1.4 | 2.14 | 1.59 | 
O=C1C(NS(=O)(=O)c2ccccc2)=C(n2cnc3ccccc32)C(=O)c2ccccc21 | > 100 | > 100 | > 100 | > 100 | > 100 | > 100 | > 100 | > 100 | > 100 |  |  |  |  |  | 
CC(/C=C/c1ncccc1OCCCCCC(=O)O)=N\NC1=NCCN1 | > 100 | > 100 | > 100 | > 100 | > 100 | > 100 | > 100 |  | > 100 |  |  |  |  |  | 
O=C(NC(=O)c1cn(CCN2CCNCC2)c(=O)[nH]c1=O)OCc1ccccc1 | > 100 | > 100 | > 100 | > 100 | > 100 | > 100 | > 100 | > 100 |  |  |  |  |  |  | 
CCCCCCc1nn2c(-c3ccc(C)cc3)nnc2s1 | > 100 | > 100 |  |  | > 100 | > 100 | > 100 | > 100 | > 100 |  |  |  |  |  | > 100
CC(C)OP(=O)(OC(C)C)C(C(F)(F)F)C(F)(F)F | > 100 | > 100 | > 100 | > 100 | > 100 | > 100 | > 100 | > 100 | > 100 |  |  |  |  |  | 
